Assay results: patent US6613794B2, “Hydroxyindoles, their use as inhibitors of phosphodiesterase 4 and processes for their preparation” (Arzneimittelwerk Dresden GmbH, priority 1998, dated 2003)

Experiments:
[1] = test system: LPS-induced pulmonary neutrophil infiltration; experiment: LPS-induced pulmonary neutrophil infiltration in ferrets; type: in vivo; details: for inhibition of LPS-induced neutrophilia: powder with lactose, 2 hours before LPS
Experimental: The inhibition of lipopolysaccharide (LSP)-induced pulmonary neutrophil infiltration by the substance is investigated in an in vivo test on male ferrets (0.6-2 kg). The experimental animals are anaesthetized with pentobarbital sodium (40 mg/kg of body weight i.p.), placed individually into a closed nebulization box of 5 l capacity and exposed to an ultrasonically nebulized aerosol of 0.01% strength LPS (lipopolysaccharide) solution (additionally 0.1% hydroxylamine in PBS) for 10 minutes. The aerosol is generated by a nebulizer driven with compressed air (0.2 Mpa). Control animals are treated with an aerosol of physiological saline solution. The animals are observed during the entire process and removed from the nebulization box after admission of fresh air. On inhalation, nebulized LPS immediately induces inflammation of the airways, which is characterized by a massive infiltration of neutrophilic granulocytes into the lungs of the experimental animals. The neutrophilia achieves its maximum 4 to 6 hours after LPS exposure. In order to be able to measure the number of infiltrated neutrophilic granulocytes, the animals are anaesthetized with an overdose of ethylurethane (1.5 g/kg of body weight i.p.) 6 hours after LPS provocation and a bronchoalveolar lavage (BAL) is carried out using 2×10 ml of physiological saline solution. The number of cells in the pooled original BAL fluid (100 μl) are determined using the automatic cell-counting apparatus sold by Bayer Diagnostic under the trade designation Technicon HIE and the different leucocytes per μl are differentiated. In each test, 2 control groups (nebulization with physiological saline solution or with LPS solution) are included. Substances having anti-inflammatory activity, particularly those which affect TNFα release or the function of the neutrophilic granulocytes, inhibit the infiltration of leucocytes. The inhibition of infiltration is determined by the comparison of the number of infiltrated neutrophils in untreated experimental animals (with and without LPS provocation).
For intrapulmonary administration, the trachea of the animals is opened under anaesthesia with 40 mg/kg i.p. of pentobarbital sodium, 3% strength, 1.3 ml/kg, a 7 cm-long PVC catheter is tied in and the test substances are administered intrapulmonarily in powder form (mixed with lactose to 20 mg/kg) by means of a syringe 2 hours before LPS provocation. The intrapulmonary administration of Example 1 in doses of 1, 3 and 10 mg/kg inhibits LPS-induced neutrophilia in a dose-dependent manner (43%, 65% and 100%).

[2] = test system: LPS-induced TNFα release in human blood; experiment: LPS-induced TNFα release in human blood; type: cell-based; details: human blood diluted 1:5, LPS 10 μg/ml, 24 hours
Text: The stimulation of isolated leucocytes to cytokine release can take place in various ways. Lipopolysaccharides (LPSs) are a stimulus suitable for the investigation of TNFα release. LPS is a constituent of the bacterial cell walls and is released by killing the bacteria (antibiotics or immune system). LPS particularly stimulates the activity of the phagocytizing leucocytes (tissue macrophages, granulocytes, monocytes) and causes the infiltration of leucocytes from the blood stream into the affected tissue. A cytokine important for these mechanisms is TNFα, which is secreted in large amounts by the affected cells (the monocytes and macrophages are the main source) and initiates and maintains inflammation alongside other mediators.
For the investigation of the effect on LPS-induced TNFα release, human blood was obtained from various donors (inhibition of coagulation by means of citrate) and diluted 1:5 with RPMI 1640 cell culture medium. The test substances were added to the samples in various concentrations before the LPS challenge. […] After incubation of the test batches for 24 hours at 37° C. and under 5% CO2 in an incubator, the diluted blood was centrifuged and the TNFα concentration in the cell-free supernatant was measured by means of ELISA.

[3] = test system: LPS-induced pulmonary neutrophilia; experiment: LPS-induced pulmonary neutrophilia in domestic pigs; type: in vivo; details: intrapulmonary administration of 10 mg/animal
Experimental: Pulmonary neutrophilia can be induced with LPS in domestic pigs in a manner similar to that in the ferret. The animals are anaesthetized with pentobarbital 10 mg/kg i.v., and intubated. Using a bronchoscope, a partial bronchoalveolar lavage is carried out in order to determine the proportion of neutrophilic granulocytes under physiological conditions. The test substance is then administered and the animals inhale an ultrasonically nebulized aerosol of 0.03% strength LPS (lipopolysaccharide) solution (additionally 0.1% hydroxylamine in PBS) through the tracheal tube for 20 min. The inhaled LPS induces a reactive inflammation of the airways and neutrophilic granulocytes infiltrate on a huge scale. The neutrophilia achieves its maximum 4 to 6 hours after LPS exposure. After 6 hours, the bronchoalveolar lavage is repeated and the increase in the neutrophil count is determined arithmetically.

Q: Which “inhibition of neutrophilia in the BAL” value ([1]; 1 mg/kg i.p.) does the source give for O=C(Nc1c(Cl)cncc1Cl)C(=O)c1cn(Cc2ccc(F)cc2)c2ccc(O)cc12 [Example 1, N-(3,5-Dichloropyridin-4-yl)-2-[1-(4-fluorobenzyl)-5-hydroxyindol-3-yl]-2-oxoacetamide] here?
A: The value was 18%.

Q: What about the “inhibition of LPS-induced neutrophilia” value ([1]; 1 mg/kg intrapulmonary) of the same compound?
A: The value was 43%.

Q: What about the “inhibition of neutrophilia in the BAL” value ([1]; 3 mg/kg i.p.) of the same compound?
A: The value was 64%.

Q: What about the “inhibition of LPS-induced neutrophilia” value ([1]; 3 mg/kg intrapulmonary) of the same compound?
A: Its value is 65%.

Q: And the “inhibition of neutrophilia in the BAL” value ([1]; 10 mg/kg i.p.)?
A: The value was 78%.

Q: What about the “inhibition of LPS-induced neutrophilia” value ([1]; 10 mg/kg intrapulmonary) of the same compound?
A: Its value is 100%.

Q: And the “ID50, inhibition of LPS-induced neutrophilia in BAL” value ([1]; i.p., 2 hours before LPS provocation)?
A: The value was 2.4 mg/kg.

Q: And the “ID50, inhibition of LPS-induced neutrophilia” value ([1]; intrapulmonary administration (printed i.palm.))?
A: The value was 1.65 mg/kg.

Q: And the IC50 [2]?
A: The IC50 was 0.8 µM.

Q: What about the “inhibition of LPS-induced pulmonary neutrophilia” value [3] of the same compound?
A: The value was 51%.

Q: Which IC50 [2] does the source give for COc1ccc([C@]2(C#N)CC[C@@H](C(=O)O)CC2)cc1OC1CCCC1 [SB 207499, reference compound] here?
A: Its IC50 is 7 µM.

Q: For O=C(Nc1c(Cl)cc(OC(F)(F)F)cc1Cl)C(=O)c1cn(Cc2ccc(F)cc2)c2ccc(O)cc12, which melting point is on record?
A: Its melting point is 176 to 178 °C.

Q: With O=C(Nc1c(Cl)cncc1Cl)C(=O)c1cn(Cc2ccc(F)cc2)c2cc(O)ccc12 as the compound, how does the melting point read?
A: The melting point was 212 to 213 °C.

Q: With COc1ccc(Cn2cc(C(=O)Nc3c(Cl)cncc3Cl)c3cc(O)ccc32)cc1 as the compound, how does the melting point read?
A: Its melting point is 239 to 241 °C.

Q: Which melting point does the source give for O=C(Nc1c(Cl)cncc1Cl)C(=O)c1cn(Cc2c(F)cccc2F)c2ccc(O)cc12 here?
A: Its melting point is 266 to 268 °C.

Q: Which melting point does the source give for CC(C)n1cc(C(=O)C(=O)Nc2c(Cl)cncc2Cl)c2cc(O)ccc21 here?
A: The melting point was 245 to 247 °C.

Q: With O=C(Nc1c(Cl)cncc1Cl)C(=O)c1cn(CC2CCCC2)c2ccc(O)cc12 as the compound, how does the melting point read?
A: Its melting point is 246 to 248 °C.

Q: For O=C(Nc1c(Cl)cccc1Cl)C(=O)c1cn(Cc2ccc(F)cc2)c2ccc(O)cc12, which melting point is on record?
A: The melting point was 216 to 218 °C.

Q: With CCCn1cc(C(=O)C(=O)Nc2c(Cl)cncc2Cl)c2cc(O)ccc21 as the compound, how does the melting point read?
A: Its melting point is 280 to 282 °C.

Q: Which “inhibition of neutrophilia in the BAL” value ([1]; 1 mg/kg i.p.) does the source give for COc1ccc(C(=O)Nc2c(Cl)cncc2Cl)cc1OC1CCCC1 [RPR-73401, reference compound] here?
A: Its value is 49%.

Q: With O=C(Nc1c(Cl)cc(C(F)(F)F)cc1Cl)C(=O)c1cn(Cc2ccc(F)cc2)c2ccc(O)cc12 as the compound, how does the melting point read?
A: The melting point was 199 to 201 °C.
